Columns and labels:
surinam grass = assay: Test E preemergence herbicide test; type: in vivo, Brachiaria decumbens; parameters: key: 0 = no effect, 100 = complete control
Excerpt: Seeds of plant species selected from corn (Zea mays), soybean (Glycine max), velvetleaf (Abutilon theophrasti), lambsquarters (Chenopodium album), wild poinsettia (Euphorbia heterophylla), pigweed, palmer (palmer pigweed, Amaranthus palmeri), waterhemp (common waterhemp, Amaranthus rudis), surinam grass (Brachiaria decumbens), crabgrass, large (large crabgrass, Digitaria sanguinalis), crabgrass, Brazil (Brazilian crabgrass, Digitaria horizontalis), panicum, fall (fall panicum, Panicum dichotomiflorum), foxtail, giant (giant foxtail, Setaria faberii), foxtail, green (green foxtail, Setaria viridis), goosegrass (Eleusine indica), johnsongrass (Sorghum halepense), ragweed (common ragweed, Ambrosia elatior), barnyardgrass (Echinochloa crus-galli), sandbur (southern sandbur, Cenchrus echinatus), arrowleaf […] rhombifolia), ryegrass, Italian (Italian ryegrass, Lolium multiflorum), dayflower, VA (Virginia dayflower, Commelina virginica), field bindweed (Convolvulus arvensis), morningglory (Ipomoea coccinea), nightshade (eastern black nightshade, Solanum ptycanthum), kochia (Kochia scoparia), nutsedge, yellow (yellow nutsedge, Cyperus esculentus), cocklebur (common cocklebur, Xanthium strumarium), smartweed (ladysthumb smartweed, Polygonum Persicaria) and beggarticks (hairy beggarticks, Bidens pilosa), were planted into a silt loam soil and treated preemergence with test chemicals formulated in a non-phytotoxic solvent mixture which included a surfactant. Treated plants and controls were maintained in a greenhouse for 21 days, after which time all species were compared to controls and visually evaluated. Plant response ratings, summarized in Table E, are based on a scale of 0 to 100 where 0 is no effect and 100 is complete control. A dash (-) response means no test result.

bermudagrass = assay: Test C pre-/postemergence herbicide test; type: in vivo, Cynodon dactylon; details: Preemergence
Outline: (§1)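 Visual rating, 0 (no effect) to 100 (complete control), versus untreated controls after 13 to 15 days in the greenhouse. Pre: seeds in loam/sand, sprayed at planting. Post: 1- to 4-leaf plants (2 to 18 cm) in peat-based mix. Compounds in non-phytotoxic solvent plus surfactant.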

foxtail, green = assay: Test C pre-/postemergence herbicide test; type: in vivo, Setaria viridis; details: Preemergence
Outline: as §1

morningglory = assay: Test E preemergence herbicide test; type: in vivo, Ipomoea coccinea; parameters: key: 0 = no effect, 100 = complete control
Outline: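 Visual injury rating, 0 (no effect) to 100 (complete control), versus controls at 21 days in greenhouse. Preemergence application to seeds planted in silt loam; compound formulated in non-phytotoxic solvent mix plus surfactant.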

canarygrass = assay: Test D pre-/postemergence herbicide test; type: in vivo, Phalaris minor; details: for Plant response rating: Canarygrass, scale 0 to 100; for Plant response rating, Canarygrass: scale 0 to 100 (0 no effect, 100 complete control)
Outline: (§2)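 Seeds sown in silt loam were sprayed preemergence with test chemicals in a non-phytotoxic solvent mixture with surfactant. Postemergence plants grown in peat/vermiculite medium were treated at 2–18 cm (1- to 4-leaf stage). After 7 to 21 days in a controlled environment, injury was rated visually versus controls, 0 (no effect) to 100 (complete control).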

bluegrass = assay: Test D pre-/postemergence herbicide test; type: in vivo, Poa annua; details: for Plant response rating: Bluegrass, scale 0 to 100; for Plant response rating, Bluegrass: scale 0 to 100 (0 no effect, 100 complete control)
Outline: as §2

[1] = 125 g ai/ha, scale 0 to 100 (0 no effect, 100 complete control)
[2] = 31 g ai/ha, scale 0 to 100 (0 no effect, 100 complete control)
[3] = 250 g ai/ha, scale 0 to 100 (0 no effect, 100 complete control)

| Structure (SMILES) | Plant response rating, Surinam Grass (surinam grass; 31 g ai/ha) | Plant response rating, Surinam Grass (surinam grass; 62 g ai/ha) | Plant response rating, Surinam Grass (surinam grass; 125 g ai/ha) | Plant response rating, Surinam Grass (surinam grass; 250 g ai/ha) | Plant response rating, Morningglory (morningglory; 31 g ai/ha) | Plant response rating, Morningglory (morningglory; 125 g ai/ha) | Plant response rating, Morningglory (morningglory; 250 g ai/ha) | Plant response rating, Canarygrass (canarygrass; Preemergence, 62 g ai/ha) | Plant response rating, Canarygrass (canarygrass; Preemergence, 31 g ai/ha) | Plant response rating (canarygrass; Preemergence, 250 g ai/ha) | Plant response rating, Bluegrass (bluegrass; Preemergence, 62 g ai/ha) | Plant response rating, Bluegrass (bluegrass; Preemergence, 31 g ai/ha) | Plant response rating (bluegrass; Preemergence, 250 g ai/ha) | Plant response rating, Morningglory (morningglory; 62 g ai/ha) | also measured |
| --- | --- | --- | --- | --- | --- | --- | --- | --- | --- | --- | --- | --- | --- | --- | --- |
| O=C1NCC(c2ccc(Cl)c(Cl)c2)C1C(=O)Nc1ccccc1F (racemic) [Compound 14] | 0 | 0 | 20 | 60 | 0 | 0 | 0 |  |  |  |  |  |  |  | Plant response rating, Surinam Grass (surinam grass; 16 g ai/ha): 0; Plant response rating, Bermudagrass (bermudagrass; 62 g ai/ha, scale 0 to 100): 90; Plant response rating, Bermudagrass (bermudagrass; [1]): 95; Bermudagrass plant response rating (bermudagrass; [2]): 75; Plant response rating, Bermudagrass (bermudagrass; [3]): 95; Plant response rating, Foxtail, Green (foxtail, green; 62 g ai/ha, scale 0 to 100): 90; Plant response rating, Foxtail, Green (foxtail, green; [1]): 90; Foxtail, Green plant response rating (foxtail, green; [2]): 25; Plant response rating, Foxtail, Green (foxtail, green; [3]): 95; Plant response rating, Morningglory (morningglory; 16 g ai/ha): 0 |
| O=C1NCC(c2ccc(C(F)(F)F)cc2)C1C(=O)Nc1cccc(F)c1F (racemic) [Compound 202] | 20 |  | 65 | 95 | 0 | 0 | 30 | 10 | 5 | 75 | 25 | 10 | 70 | 0 | Plant response rating (canarygrass; Postemergence, 31 g ai/ha): 0; Plant response rating (canarygrass; Postemergence, 62 g ai/ha): 0; Plant response rating (canarygrass; Postemergence, 125 g ai/ha): 0; Plant response rating (canarygrass; Postemergence, 250 g ai/ha): 0; Plant response rating (canarygrass; Preemergence, 125 g ai/ha): 60; Plant response rating (bluegrass; Postemergence, 31 g ai/ha): 0; Plant response rating (bluegrass; Postemergence, 62 g ai/ha): 10; Plant response rating (bluegrass; Postemergence, 125 g ai/ha): 10; Plant response rating (bluegrass; Postemergence, 250 g ai/ha): 15; Plant response rating (bluegrass; Preemergence, 125 g ai/ha): 65 |
| O=C1NC[C@H](c2cccc(C(F)(F)F)c2)[C@H]1C(=O)Nc1cccc(F)c1F [Compound 206] | 50 | 95 | 85 | 98 | 0 | 0 | 0 | 75 | 55 | 85 | 30 | 0 | 70 | 0 | Plant response rating, Canarygrass (canarygrass; Preemergence, 125 g ai/ha): 85; Plant response rating, Bluegrass (bluegrass; Preemergence, 125 g ai/ha): 35 |

— patent US10294202B2, “Pyrrolidinones as herbicides” (FMC Corporation, priority 2013, dated 2019)
